One experiment has as its system T1, LacHU1.
T1 construct: native secreted enzyme purified from culture liquid; signal peptide of 18 residues
In words: initial-rate oxidation assay, Michaelis-Menten fit. It counts as biochemical, Alternaria sp. HU. The following applies: free enzyme; apparent constant; read-out: Kinetic Parameters / KM, μM / LacHU1. An excerpt: initial-rate oxidation assay, Michaelis-Menten fit on LacHU1

A further experiment relates to T2, LacHU2.
T2 construct: native secreted enzyme purified from culture liquid; signal peptide of 18 residues
Nature of the experiment: initial-rate oxidation assay, Michaelis-Menten fit. Type of experiment: biochemical, Alternaria sp. HU. The note with it: free enzyme; apparent constant; read-out: Kinetic Parameters / KM, μM / LacHU2. An excerpt:
initial-rate oxidation assay, Michaelis-Menten fit on LacHU2

Structures are written as SMILES. Where a name gives a salt, the structure may show the parent alone.

Turning to `COc1cccc(OC)c1O` [2,6-DMP], the Km with LacHU1 amounted to 10 ± 2 µM; with LacHU2, 4300 µM. Consider `OCCN1c2ccccc2Oc2ccccc21` [2-(10H-phenoxazin-10-yl)ethanol], for which the Km in the experiment with LacHU1 amounted to 40 ± 10 µM; in the experiment on LacHU2, 200 ± 50 µM. For `CCn1c(=NN=c2sc3cc(S(=O)(=O)O)ccc3n2CC)sc2cc(S(=O)(=O)O)ccc21` [ABTS, 2,2’-azino-bis(3-ethylbenzothiazoline-6-sulfonic acid) diammonium salt], in that order: 60 ± 10 µM and 5600 µM.

In the case of `O=C(O)/C=C/c1ccc(O)c(O)c1` [Caffeic acid], the Km in the experiment with LacHU1 came to 50 ± 3 µM; in the experiment with LacHU2 it was 400 ± 30 µM. `Oc1ccccc1O` [Catechol]: in the experiment with LacHU2, the Km was 20000 µM. `O=C(/C=C/c1ccc(O)c(O)c1)O[C@@H]1C[C@](O)(C(=O)O)C[C@@H](O)[C@H]1O` [Chlorogenic acid]: in the experiment on LacHU2, the Km was 90 ± 40 µM. Regarding `COc1cc(/C=C/C(=O)O)ccc1O` [Ferulic acid], the Km amounted to 50 ± 4 µM with LacHU1 and 230 ± 30 µM with LacHU2.

Take `O=c1c(O)c(-c2ccc(O)c(O)c2)oc2cc(O)ccc12` [Fisetin]: the Km with LacHU1 came to 15 ± 1 µM. Consider `Oc1ccc(O)cc1` [Hydroquinone], for which, in the experiment on LacHU2, the Km is 13000 µM. `O=c1c(O)c(-c2cc(O)c(O)c(O)c2)oc2cc(O)cc(O)c12` [Myricetin]: the Km in the experiment with LacHU1 was 2 ± 0.3 µM. Take `CN(C)CCCN1c2ccccc2Sc2ccccc21` [Promazine hydrochloride]: the Km with LacHU2 was found to be 2600 µM. As to `O=c1c(O)c(-c2ccc(O)c(O)c2)oc2cc(O)cc(O)c12` [Quercetin], the Km in the experiment on LacHU1 stood at 2 ± 0.4 µM. For `COc1cc(C=NN=Cc2cc(OC)c(O)c(OC)c2)cc(OC)c1O` [Syringaldazine], the Km in the experiment with LacHU1 was 1 ± 0.1 µM. `COc1cc(C(=O)O)cc(OC)c1O` [Syringic acid]: the Km in the experiment with LacHU1 turned out to be 40 ± 0.5 µM. Consider `Nc1ccc(N)cc1` [p-Phenylenediamine], for which, in the experiment on LacHU2, the Km came out at 3600 µM.

(Values after publication PMC11355796, “Blue and Yellow Laccases from Alternaria sp. Strain HU: Characterization and Immobilization on Magnetic Nanoparticles” (Journal of Fungi, 2024).)
